Results: US20070128665A1, “Methods for identifying compounds interacting with small membrane-bound gtp-ases” (priority 2003, published 2007)
Where two headings read alike, the source gives them in different places.

Experiments:
[1] = tested on: membrane bound active Ras (H-Ras); test: RAPID assay (Ras Activity Probe for Inhibitor Detection), GFP-RBD reporter, COS-7 cells; type: cell-based; details: 50 μM ATP
Experimental: COS-7 cells were grown in DMEM supplemented with 10% FCS. The day before transfection cells were seeded out on 6-well tissue culture plates containing 22 mm circular glass coverslips to obtain a confluency of 50-60% prior to transfection. DNA constructs (pcDNA3.1 H-Ras, pEGFP-C3 RBD and optionally pCl-neo CAPRI) were incubated with Genejuice (Novagen) according to manufacturers instructions and added to the cell medium to transfect (lipofect) cells. 24 hours later coverslips were mounted in a heated stage (37° C.) in KH buffer [5 mM HEPES, 10 mM glucose, 25 mM NaHCO3 1.2 mM K2HPO4, 118 mM NaCl, 4.7 mM KCl, 1.2 mM MgSO4, 1.3 mM CaCl2 (pH 7.4)]. Nipkow confocal microscopy was performed using a PerkinElmer UltraView LCI system to image GFP. […] Inhibition of Ras activation, or deactivation of active Ras, was detected by dissociation of the fluorescent […] reporter from the plasma and/or Golgi membranes, into the cytosol. This was seen as a loss of fluorescent signal from the membrane/increase in fluorescent signal in the cytosol.
The inverse relative change in fluorescence intensity at a given time point is expressed as, 1−(cytosolic fluorescence intensity/maximum experimental cytosolic fluorescence intensity)
(§1) Relative Dissociation=maximal pixel intensity of cytosolic ROI (usually at time zero) divided by the cytosolic ROI at time x during the experiment.

[2] = tested on: membrane bound active Ras (H-Ras); test: GFP-RBD dissociation in H-Ras transfected CHO.T cells; type: cell-based; details: ATP 50 μM
Description: FIG. 6. […] GFP-RBD is localised to the plasma membrane and endomembranes in non-starved, H-Ras transfected CHO.T cells.

CAPRI C2A/C2B domains = test: GFP-C2A/C2B localisation, live confocal microscopy, COS-7 cells; type: cell-based
Experimental: Experiments were performed to assess expression of GFP-C2A/C2B domain COS-7 cells imaged by live confocal microscopy. Cells were transfected with GFP-C2A/C2B vector by lipofection and imaged 24 hours later. […] Nuclear GFP-C2A/C2B is diffusely localised throughout the nucleoplasm before stimulation (due to size of the fusion protein). […] The stimulated association/disassociation of these structures are probably due to a specific interaction with endogenous entities near the plasma membrane and within the perinuclear region, rather than non-specific aggregation (see 20 second image).

CAPRI = test: GFP-CAPRI translocation assay, live confocal imaging, HeLa cells; type: cell-based; details: HeLa cells expressing GFP-C2B; carbachol stimulation
Experimental: The ability of the activating peptide to induce translocation of CAPRI to the plasma membrane can be monitored by applying cell-permeable peptide to live cells expressing GFP-tagged CAPRI imaged by confocal or wide-field microscopy. Experiments were performed to assess expression of GFP-C2B compared with GFP-CAPRI in HeLa cells 24 hrs after transient transfection by lipofection. Live imaging was performed by confocal microscopy. The results are shown in FIG. 3, the image for GFP-C2B is shown on the left hand side, GFP-CAPRI images at 0 s, 30 s and 60 s are shown on the right. Cells expressing GFP-CAPRI were stimulated with carbachol to mobilise intracellular Ca^2+, time=seconds after stimulation. […] CAPRI activating peptides induce the translocation of GFP-CAPRI to the plasma membrane in the absence of agonist stimulation.

[3] = tested on: membrane bound active Ras (H-Ras); details: 100 μM histamine
Description: FIG. 9. […] Dissociation of the RBD from the plasma membrane is expressed as Relative Dissociation=maximal pixel intensity of cytosolic ROI (usually at time zero) divided by the cytosolic ROI at time x during the experiment.
as §1

Nc1ncnc2c1ncn2[C@@H]1O[C@H](COP(=O)(O)OP(=O)(O)OP(=O)(O)O)[C@@H](O)[C@H]1O [ATP]
deactivation of Ras (GFP-RBD dissociation), control cells ([1]; COS cells transfected with H-Ras and GFP-RBD only, or GAP-dead CAPRI (R47S mutant)): no detectable deactivation
dissociation of GFP-RBD from the plasma membrane (Ras deactivation) ([1]; non-starved COS-7 transfected with H-Ras, GFP-RBD and CAPRI): rapid dissociation of the GFP-RBD exclusively from the plasma membrane
deactivation of Ras at the plasma membrane (GFP-RBD dissociation) ([2]; CHO cells stably expressing CAPRI, H-Ras transfected, non-starved): rapid deactivation of Ras at the plasma membrane
GFP-RBD dissociation, parental cells ([2]; parental CHO.T cells): No such dissociation

O=C(O)CN(CCOCCOCCN(CC(=O)O)CC(=O)O)CC(=O)O [EGTA]
dissociation of GFP-C2A/C2B chimera from the membrane (CAPRI C2A/C2B domains; COS-7 cells after ionomycin, 5 μM EGTA in extracellular medium): rapid dissociation of the GFP-C2A/C2B chimera from the membrane into the cytosol and nucleoplasm

C[N+](C)(C)CCOC(N)=O [carbachol]
GFP-C2B localisation (CAPRI): No detectable effect

NCCc1c[nH]cn1 [histamine]
deactivation of Ras (GFP-RBD dissociation), control cells ([3]; HeLa cells transfected with H-Ras and GFP-RBD only, or GAP-dead CAPRI (R47S mutant)): no detectable deactivation
dissociation of GFP-RBD from the plasma membrane (Ras deactivation) ([3]; non-starved HeLa transfected with H-Ras, GFP-RBD and CAPRI): rapid dissociation of the GFP-RBD from the plasma membrane

C[C@H](CCC(=O)O)C[C@H](C)C[C@H](C)C(=O)/C=C(\O)[C@H](C)C[C@H](C)C/C=C/[C@@H](C)[C@@H](O)[C@@H](C)[C@@H](O)C[C@@H]1CC[C@@](C)([C@H]2CC[C@@](C)([C@@H](C)O)O2)O1 [ionomycin]
redistribution of GFP-C2A/C2B chimera (CAPRI C2A/C2B domains; COS-7 cells, ionomycin stimulation): forms punctate vesicular structures under the plasma membrane
